Laboratory results: patent publication US20230270713A1, “Administration of Resiniferatoxin For Treatment of Bladder Pain or Bladder Cancer” (Sorrento Therapeutics, Inc., priority 2020, published 2023)
Several values for one entry are separate records, joined by “and”; a condition that tells them apart may be missing. Identical values can stand only once. Like-named read-outs stand apart in the source and are kept apart here.

Test: Pharmacokinetic/toxicokinetic profile of RTX after intravesical instillation in dogs
Type: in vivo, dog
Experimental: Local tolerance and the pharmacokinetic (PK), and toxicokinetic (TK) profile of RTX in dogs was determined after a single instillation of RTX into the bladder of dogs (n=6). The RTX formulations were prepared using aseptic techniques in a biological safety cabinet (BSC) by mixing the appropriate amount of diluent with the appropriate amount of RTX. Dosing formulation concentrations used were 1 and 10 mcg/mL.
Three male and three female dogs ranging in weight from 5.95 to 8.60 kg were used in the study. The dogs were assigned into Group 1 (receiving a dose of 1 mcg/mL RTX) or Group 2 (receiving a dose of 10 mcg/mL RTX) as shown in the Table 3 below.
RTX was administered via intravesical instillation into the urinary bladder. The animals were given a single dose of 25 or 250 mcg/dose in a total volume of 25 mL on Day 1 over a period of 1 hour (±5 minutes). RTX and diluent were administered to the dogs under general anesthesia via a Foley catheter placed into the bladder for 1 hour (±5 minutes).
Blood samples were collected from all animals on Day 1 pre-dose and at 0.5, 1, 2, 4, 6, 12, 24, 36, 48, 60, and 72 hours post-dose. The toxicokinetic (TK) parameters were determined for RTX, and if appropriate, the metabolites, from mean concentration-time data.
Cmax is the observed maximum plasma concentration from the start of dosing. Tmax is the time to reach the Cmax. AUC(0-T) is the area under the plasma concentration-time curve from time zero to the last measurable time point calculated by the linear trapezoidal rule.

[1] = female dogs 1004, 1006 individual, 250 mcg intravesical
[2] = female dogs, 250 mcg intravesical

With C=C(C)[C@]12C[C@@H](C)[C@@]34O[C@](Cc5ccccc5)(O[C@@H]1[C@@H]3C=C(COC(=O)Cc1ccc(O)c(OC)c1)C[C@]1(O)C(=O)C(C)=C[C@@H]41)O2 [RTX, resiniferatoxin] the concentration at 2 h (both sexes, dog, plasma, other: intravesical instillation, 25 mcg, Group 1 dogs, 25 mL at 1 mcg/mL (25 mcg/dose), 2 hours post-dosing, male and female dog, read-out: plasma concentrations for RTX) was under 0.05 ng/mL, the “AUC(0-T) Ratio (Male/Female)” value (dogs, 250 mcg intravesical) was 1.23 and the “Cmax Ratio (Male/Female)” value (dogs, 250 mcg intravesical) was 1.28. For the same compound, the “RTX exposure in males compared with females” value (dogs, 250 mcg intravesical) was “similar”, the “Plasma concentration of RTX” value (female dog 1002, 25 mcg intravesical, 2 h) was “BQL (*BQL—Below quantifiable limit (<50.0 pg/mL); adequate signal-to-noise enabled reporting value as estimate)” and the “Plasma concentration of RTX” value (female dog 1002, 25 mcg intravesical, 4 h) was “BQL (*BQL—Below quantifiable limit (<50.0 pg/mL); adequate signal-to-noise enabled reporting value as estimate)”. The “Plasma concentration of RTX” value (female dog 1002, 25 mcg intravesical, 6 h) was “BQL (*BQL—Below quantifiable limit (<50.0 pg/mL); adequate signal-to-noise enabled reporting value as estimate)”, the “Plasma concentration of RTX” value (female dog 1002, 25 mcg intravesical, 12 h) was “BQL (*BQL—Below quantifiable limit (<50.0 pg/mL); adequate signal-to-noise enabled reporting value as estimate)” and the “Plasma concentration of RTX” value (female dog 1002, 25 mcg intravesical, 24 h) was “BQL (*BQL—Below quantifiable limit (<50.0 pg/mL); adequate signal-to-noise enabled reporting value as estimate)”. The “Plasma concentration of RTX” value (female dog 1002, 25 mcg intravesical, 36 h) was “BQL (*BQL—Below quantifiable limit (<50.0 pg/mL); adequate signal-to-noise enabled reporting value as estimate)”, the “Plasma concentration of RTX” value (female dog 1002, 25 mcg intravesical, 48 h) was “BQL (*BQL—Below quantifiable limit (<50.0 pg/mL); adequate signal-to-noise enabled reporting value as estimate)” and the “Plasma concentration of RTX” value (female dog 1002, 25 mcg intravesical, 60 h) was “BQL (*BQL—Below quantifiable limit (<50.0 pg/mL); adequate signal-to-noise enabled reporting value as estimate)”. For the same compound, the “Plasma concentration of RTX” value (female dog 1002, 25 mcg intravesical, 72 h) was “BQL (*BQL—Below quantifiable limit (<50.0 pg/mL); adequate signal-to-noise enabled reporting value as estimate)”, the “Plasma concentration of RTX” value (female dog 1002, 25 mcg intravesical, Predose) was “BQL (*BQL—Below quantifiable limit (<50.0 pg/mL); adequate signal-to-noise enabled reporting value as estimate)” and the “AUC(0-T)” value [1] was 0.441 ng·h/mL and 0.146 ng·h/mL. The “AUC(0-T)/Dose” value [1] was 1.76 pg·h/mL/µg and 0.584 pg·h/mL/µg, the Cmax [1] was 0.388 ng/mL and 0.16 ng/mL and the Cmax/Dose [1] was 1.55 pg/mL/µg and 0.640 pg/mL/µg. The “Plasma concentration of RTX” value (female dogs 1004, 1006 individual, 250 mcg intravesical, 0.5 h) was 0.388 ng/mL and 0 ng/mL, the “Plasma concentration of RTX” value (female dogs 1004, 1006 individual, 250 mcg intravesical, 1 h) was 0.16 ng/mL and the “Plasma concentration of RTX” value (female dogs 1004, 1006 individual, 250 mcg intravesical, 2 h) was 0.0511 ng/mL. For the same compound, the “Plasma concentration of RTX” value (female dogs 1004, 1006 individual, 250 mcg intravesical, 4 h) was 0 ng/mL, the “Plasma concentration of RTX” value (female dogs 1004, 1006 individual, 250 mcg intravesical, 6 h) was 0 ng/mL and the “Plasma concentration of RTX” value (female dogs 1004, 1006 individual, 250 mcg intravesical, 12 h) was 0 ng/mL. For the same compound, the “Plasma concentration of RTX” value (female dogs 1004, 1006 individual, 250 mcg intravesical, 24 h) was 0 ng/mL, the “Plasma concentration of RTX” value (female dogs 1004, 1006 individual, 250 mcg intravesical, 36 h) was 0 ng/mL and the “Plasma concentration of RTX” value (female dogs 1004, 1006 individual, 250 mcg intravesical, 48 h) was 0 ng/mL. For the same compound, the “Plasma concentration of RTX” value (female dogs 1004, 1006 individual, 250 mcg intravesical, 60 h) was 0 ng/mL, the “Plasma concentration of RTX” value (female dogs 1004, 1006 individual, 250 mcg intravesical, 72 h) was 0 ng/mL and the “Plasma concentration of RTX” value (female dogs 1004, 1006 individual, 250 mcg intravesical, Predose) was 0 ng/mL. For the same compound, the “AUC(0-T)/Dose, Mean” value [2] was 1.18 pg·h/mL/µg, the “Cmax/Dose, Mean” value [2] was 1.10 pg/mL/µg and the “Plasma concentration of RTX, Mean” value (female dogs, 250 mcg intravesical, Predose) was 0 ng/mL. The Tmax (female, dog, plasma, 250 ug, female dogs 1004, 1006 individual, 250 mcg intravesical, read-out: Tmax) was 30 min, the Tmax (female, dog, plasma, 250 ug, female dogs, 250 mcg intravesical, read-out: Tmax, Mean) was 45 ± 21.2 min and the concentration at 60 h (female, dog, plasma, other: intravesical instillation into the urinary bladder, 250 mcg, female dogs 1004, 1006 individual, 250 mcg intravesical, 60 h, read-out: Plasma concentration of RTX) was 0 ng/mL. It also gave a concentration at 72 h (female, dog, plasma, other: intravesical instillation into the urinary bladder, 250 mcg, female dogs 1004, 1006 individual, 250 mcg intravesical, 72 h, read-out: Plasma concentration of RTX) of 0 ng/mL, a concentration at 0.5 h (female, dog, plasma, other: intravesical instillation into the urinary bladder, 250 mcg, female dogs, 250 mcg intravesical, 0.5 h, read-out: Plasma concentration of RTX, Mean) of 0.194 ng/mL and a concentration at 60 h (female, dog, plasma, other: intravesical instillation into the urinary bladder, 250 mcg, female dogs, 250 mcg intravesical, 60 h, read-out: Plasma concentration of RTX, Mean) of 0 ng/mL. For the same compound, the concentration at 72 h (female, dog, plasma, other: intravesical instillation into the urinary bladder, 250 mcg, female dogs, 250 mcg intravesical, 72 h, read-out: Plasma concentration of RTX, Mean) was 0 ng/mL, the AUC(0-t) (female, dog, plasma, other: intravesical instillation, 250 ug, female dogs, 250 mcg intravesical, read-out: AUC(0-T), Mean) was 0.294 ± 0.209 ng·h/mL and the Cmax (female, dog, plasma, other: intravesical instillation, 250 ug, female dogs, 250 mcg intravesical, read-out: Cmax, Mean) was 0.274 ± 0.161 ng/mL. It also gave a Tmax (female, dog, plasma, other: intravesical instillation, 250 ug, female dogs, 250 mcg intravesical, read-out: Tmax, Mean) of 45 min, a concentration at 0.5 h (female, dog, plasma, other: intravesical instillation, 25 mcg, female dog 1002, 25 mcg intravesical, 0.5 h, read-out: Plasma concentration of RTX) of 0.0392 ng/mL and a concentration at 1 h (female, dog, plasma, other: intravesical instillation, 25 mcg, female dog 1002, 25 mcg intravesical, 1 h, read-out: Plasma concentration of RTX) of 0.0203 ng/mL. The concentration at 1 h (female, dog, plasma, other: intravesical instillation, 250 mcg, female dogs 1004, 1006 individual, 250 mcg intravesical, 1 h, read-out: Plasma concentration of RTX) was 0.289 ng/mL, the concentration at 2 h (female, dog, plasma, other: intravesical instillation, 250 mcg, female dogs 1004, 1006 individual, 250 mcg intravesical, 2 h, read-out: Plasma concentration of RTX) was 0.0602 ng/mL and the concentration at 4 h (female, dog, plasma, other: intravesical instillation, 250 mcg, female dogs 1004, 1006 individual, 250 mcg intravesical, 4 h, read-out: Plasma concentration of RTX) was 0 ng/mL. The concentration at 6 h (female, dog, plasma, other: intravesical instillation, 250 mcg, female dogs 1004, 1006 individual, 250 mcg intravesical, 6 h, read-out: Plasma concentration of RTX) was 0 ng/mL, the concentration at 12 h (female, dog, plasma, other: intravesical instillation, 250 mcg, female dogs 1004, 1006 individual, 250 mcg intravesical, 12 h, read-out: Plasma concentration of RTX) was 0 ng/mL and the concentration at 24 h (female, dog, plasma, other: intravesical instillation, 250 mcg, female dogs 1004, 1006 individual, 250 mcg intravesical, 24 h, read-out: Plasma concentration of RTX) was 0 ng/mL. It also gave a concentration at 36 h (female, dog, plasma, other: intravesical instillation, 250 mcg, female dogs 1004, 1006 individual, 250 mcg intravesical, 36 h, read-out: Plasma concentration of RTX) of 0 ng/mL, a concentration at 48 h (female, dog, plasma, other: intravesical instillation, 250 mcg, female dogs 1004, 1006 individual, 250 mcg intravesical, 48 h, read-out: Plasma concentration of RTX) of 0 ng/mL and a concentration at 1 h (female, dog, plasma, other: intravesical instillation, 250 mcg, female dogs, 250 mcg intravesical, 1 h, read-out: Plasma concentration of RTX, Mean) of 0.225 ng/mL. The concentration at 2 h (female, dog, plasma, other: intravesical instillation, 250 mcg, female dogs, 250 mcg intravesical, 2 h, read-out: Plasma concentration of RTX, Mean) was 0.0557 ng/mL, the concentration at 4 h (female, dog, plasma, other: intravesical instillation, 250 mcg, female dogs, 250 mcg intravesical, 4 h, read-out: Plasma concentration of RTX, Mean) was 0 ng/mL and the concentration at 6 h (female, dog, plasma, other: intravesical instillation, 250 mcg, female dogs, 250 mcg intravesical, 6 h, read-out: Plasma concentration of RTX, Mean) was 0 ng/mL. It also gave a concentration at 12 h (female, dog, plasma, other: intravesical instillation, 250 mcg, female dogs, 250 mcg intravesical, 12 h, read-out: Plasma concentration of RTX, Mean) of 0 ng/mL, a concentration at 24 h (female, dog, plasma, other: intravesical instillation, 250 mcg, female dogs, 250 mcg intravesical, 24 h, read-out: Plasma concentration of RTX, Mean) of 0 ng/mL and a concentration at 36 h (female, dog, plasma, other: intravesical instillation, 250 mcg, female dogs, 250 mcg intravesical, 36 h, read-out: Plasma concentration of RTX, Mean) of 0 ng/mL. The concentration at 48 h (female, dog, plasma, other: intravesical instillation, 250 mcg, female dogs, 250 mcg intravesical, 48 h, read-out: Plasma concentration of RTX, Mean) was 0 ng/mL.
